From article PMC9154774, “4-(3-Alkyl/benzyl-guanidino)benzenesulfonamides as selective carbonic anhydrase VII inhibitors” (Journal of Enzyme Inhibition and Medicinal Chemistry, 2022) come the findings set out here.

Holding throughout (assay): stopped-flow CO2 hydration assay, phenol red
What all share (format): biochemical

For one test, the target named is T1, CA II (hCA II) (Homo sapiens, UniProt P00918).
T1 construct: gene CA2; recombinant, obtained in-house as reported earlier
From the text: stopped-flow CO2 hydration assay, phenol red on CA II (hCA II)

A further test deals with T2, CA VII (hCA VII) (Homo sapiens, UniProt P43166).
T2 construct: gene CA7; recombinant, obtained in-house as reported earlier
T2 sequence (P43166 whole entry): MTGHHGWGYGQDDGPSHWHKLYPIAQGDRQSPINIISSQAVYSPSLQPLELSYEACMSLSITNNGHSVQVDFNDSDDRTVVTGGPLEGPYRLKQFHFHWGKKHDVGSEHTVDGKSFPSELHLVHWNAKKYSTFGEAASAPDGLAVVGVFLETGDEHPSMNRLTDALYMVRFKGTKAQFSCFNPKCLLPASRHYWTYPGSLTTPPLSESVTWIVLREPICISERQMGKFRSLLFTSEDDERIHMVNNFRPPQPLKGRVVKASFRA
The source says:
stopped-flow CO2 hydration assay, phenol red on CA VII (hCA VII)

In a further test the target is T3, CA I (hCA I) (Homo sapiens, UniProt P00915).
T3 construct: gene CA1; recombinant, obtained in-house as reported earlier
T3 sequence (P00915 2-261): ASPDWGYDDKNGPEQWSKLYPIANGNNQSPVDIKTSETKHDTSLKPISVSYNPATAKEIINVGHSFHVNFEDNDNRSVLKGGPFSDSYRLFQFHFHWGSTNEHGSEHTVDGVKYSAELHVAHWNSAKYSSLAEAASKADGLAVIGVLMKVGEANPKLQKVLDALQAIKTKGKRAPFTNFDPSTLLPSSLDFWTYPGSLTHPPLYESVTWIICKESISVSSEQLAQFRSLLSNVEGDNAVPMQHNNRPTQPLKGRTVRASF
The source says:
stopped-flow CO2 hydration assay, phenol red on CA I (hCA I)

The structures appear in SMILES notation.

Consider `N=C(NCc1ccccc1)Nc1ccc(S(N)(=O)=O)cc1` [7a, 4-(3-Benzyl-guanidino)benzenesulfonamide], for which the Ki on CA II (hCA II) was found to be 7.7 nM; on CA VII (hCA VII), 10.1 nM; on CA I (hCA I), 746 nM.
For `COc1ccc(CNC(=N)Nc2ccc(S(N)(=O)=O)cc2)cc1` [7b, 4-(3-(4-Methoxybenzyl)guanidino)benzenesulfonamide] the same measures were 17.7 nM, 25.1 nM and 699 nM.
Take `N=C(NCc1ccc(F)cc1)Nc1ccc(S(N)(=O)=O)cc1` [7c, 4-(3-(4-Fluorobenzyl)guanidino)benzenesulfonamide]: the Ki at CA II (hCA II) is 59.1 nM; on CA VII (hCA VII), 15 nM; on CA I (hCA I), 989 nM.
As for `N=C(NCc1cccc(F)c1)Nc1ccc(S(N)(=O)=O)cc1` [7d, 4-(3-(3-Fluorobenzyl)guanidino)benzenesulfonamide], the results for the Ki at CA II (hCA II), at CA VII (hCA VII) and at CA I (hCA I) were 1.6 nM, 60.7 nM and 782 nM, respectively.
For `N=C(NCc1ccccc1F)Nc1ccc(S(N)(=O)=O)cc1` [7e, 4-(3-(2-Fluorobenzyl)guanidino)benzenesulfonamide] the same measures were 3.2 nM, 44.9 nM and 2990 nM.
For `Cc1cccc(CNC(=N)Nc2ccc(S(N)(=O)=O)cc2)c1` [7f, 4-(3-(3-Methylbenzyl)guanidino)benzenesulfonamide], in that order: 0.3 nM, 0.9 nM and 2930 nM.
For `Cc1ccccc1CNC(=N)Nc1ccc(S(N)(=O)=O)cc1` [7g, 4-(3-(2-Methylbenzyl)guanidino)benzenesulfonamide], in that order: 0.07 nM, 0.4 nM and 3160 nM.
For `CC(NC(=N)Nc1ccc(S(N)(=O)=O)cc1)c1ccccc1` (stereo not drawn) [7h, 4-(3-(1-Phenylethyl)guanidino)benzenesulfonamide], the Ki on CA II (hCA II) is 9.6 nM; at CA VII (hCA VII), 1.1 nM; at CA I (hCA I) it was 1320 nM.
For `Cc1cccc(CN(C)C(=N)Nc2ccc(S(N)(=O)=O)cc2)c1` [7i, 4-(3-Methyl-3-(3-methylbenzyl)guanidino)benzenesulfonamide], in that order: 0.08 nM, 0.7 nM and 1140 nM.
For `N=C(Nc1ccc(S(N)(=O)=O)cc1)N(Cc1ccccc1)Cc1ccccc1` [7j, 4-(3,3-Dibenzyl-guanidino)benzenesulfonamide] the same measures were 0.6 nM, 3.2 nM and 5850 nM.
For `N=C(NCCOc1ccccc1)Nc1ccc(S(N)(=O)=O)cc1` [7k, 4-(3-(2-Phenoxyethyl)guanidino)benzenesulfonamide] the same measures were 6.9 nM, 8.7 nM and 4180 nM.
For `CCCCCCCCNC(=N)Nc1ccc(S(N)(=O)=O)cc1` [7l, 4-(3-octylguanidino)benzenesulfonamide], the results for the Ki at CA II (hCA II), at CA VII (hCA VII) and on CA I (hCA I) were 0.9 nM, 2.2 nM and 730 nM, respectively.
For `CCCCCCCCCCCCNC(=N)Nc1ccc(S(N)(=O)=O)cc1` [7m, 4–(3-Dodecylguanidino)benzenesulfonamide], in that order: 0.4 nM, 0.2 nM and 930 nM.
For `CCCCCCCCCCCCCCCCNC(=N)Nc1ccc(S(N)(=O)=O)cc1` [7n, 4-(3-hexadecylguanidino)benzenesulfonamide] the same measures were 0.06 nM, 0.08 nM and 2150 nM.
For `N=C(Nc1ccc(S(N)(=O)=O)cc1)N1CCN(Cc2ccccc2)CC1` [7o, 4-Benzyl-N-(4-sulfamoylphenyl)piperazine-1-carboximidamide], in that order: 0.1 nM, 0.06 nM and 3680 nM.

For orientation: Ki means a dissociation constant, usually derived from enzyme kinetics or from competition with a known ligand. The low end stands for tighter binding, the high end for weaker binding.
